Data reported in patent publication US6440434B1, “Skin care composition” (Conopco, Inc., priority 1999, dated 2002).
Read-outs that look alike come from different tables or passages of the source.

Tests used:
[1] = target: T1, lecithin retinol acyl transferase (LRAT) (Bos taurus, UniProt Q9BGL2); experiment: in vitro Microsomal Assay of retinol esterification, LRAT catalyzed (retinyl laurate); assay type: biochemical, bovine; details: solvent blank = 100% ester formation
T1 sequence (Q9BGL2 1-230): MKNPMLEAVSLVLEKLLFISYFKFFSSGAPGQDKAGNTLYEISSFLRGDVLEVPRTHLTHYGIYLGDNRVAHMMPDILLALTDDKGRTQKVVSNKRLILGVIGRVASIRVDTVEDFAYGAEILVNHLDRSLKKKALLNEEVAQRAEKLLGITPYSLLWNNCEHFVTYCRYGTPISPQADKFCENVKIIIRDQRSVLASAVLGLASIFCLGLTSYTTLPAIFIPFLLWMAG

[2] = tested on: acyl CoA retinol transferase (ARAT); experiment: in vitro Microsomal Assay of retinol esterification, ARAT catalyzed (retinyl palmitate); assay type: biochemical, bovine; details: solvent blank = 100% ester formation
[3] = tested on: decorin synthesis in human dermal fibroblasts; experiment: Dot blot assay for decorin in dermal fibroblast conditioned medium; assay type: cell-based
[4] = tested on: procollagen-I synthesis in human dermal fibroblasts; experiment: Dot blot assay for procollagen-I in dermal fibroblast conditioned medium; assay type: cell-based; details: 0.01 μM of each active; for Procollagen 1: Table 7, PA/Retinol set, control = 100%
[5] = tested on: LRAT and ARAT catalyzed retinol esterification; experiment: in vitro Microsomal Assay, retinol esterification overall (statements in words); assay type: biochemical, bovine
[6] = Table 7, PA/trans Retinoic acid set, 0.01 μM of each active, control = 100%

Compound	% INHIBITION, LRAT ([1]; 100 μM test compound) [%]	% INHIBITION, ARAT ([2]; 100 μM test compound) [%]	other results
CCC(=O)/C=C/C1C(C)=CCCC1(C)C (stereo not drawn) [Alpha methyl ionone]	77	67	–
CCCCC/C=C\C/C=C\CCCCCCCC(=O)OC/C=C(C)/C=C/C=C(C)/C=C/C1=C(C)CCCC1(C)C [Retinyl Linoleate]	–	–	Decorin ([3]; Table 7, PA/Retinyl Linoleate set, 0.1 μM, control = 100%): 109.1%
CCCCCCCCCCC/C=C\CCCCC(=O)O [PA, Petroselinic acid]	–	–	Procollagen-I ([4]; Table 6, 24 hours, vehicle control = 100): 85.1%; Procollagen 1 [4]: 86.0%; Decorin ([3]; Table 6, 0.01 μM, 24 hours, vehicle control = 100): 101.8%; Decorin ([3]; Table 7, PA/Retinyl Linoleate set, 0.01 μM, control = 100%): 107.5%; Decorin [3, 6]: 100.5%
CC=CC(=O)C1CCC(C)(C)C=C1C (stereo not shown) [Isodamascone]	92	80	–
CC1=C(/C=C/C(C)=C/C=C/C(C)=C/C(=O)O)C(C)(C)CCC1 [trans Retinoic acid, reference compound]	–	–	Decorin [3, 6]: 102.8%
CC(=O)CCC1C(C)=CCCC1(C)C (stereo not drawn) [dihydro alpha ionone, reference compound]	18	13	–
O=CC=Cc1ccccc1 [cinnamaldehyde, reference compound]	–	0	–
N[C@@H](Cc1c[nH]c2ccccc12)C(=O)O [tryptophan, reference compound]	–	0	–
C/C=C/C(=O)C1C(C)C=CCC1(C)C (stereo not shown) [Delta damascone]	95	–	% INHIBITION, LRAT ([1]; 10 μM test compound): 64%
CC1=CCC(CCC(C)CO)C1(C)C (stereo not shown) [Brahmanol]	75	70	–
CC(C)=CCCC(C)=CCCC(C)=CCO [Farnesol]	–	43	% INHIBITION, ARAT ([2]; 10 μM test compound): 20%; retinol esterification inhibition (in words) [5]: inhibit retinol esterification
CC(=O)c1cc2c(cc1C)C(C)(C)C(C)CC2(C)C (stereo not shown) [Tonalid]	–	50	–
CCCCCCCCCCCCC/C=C/[C@@H](O)[C@H](CO)NC(C)=O [Acetyl Sphingosine]	50	62	% INHIBITION, ARAT ([2]; 10 μM test compound): 19%; % INHIBITION, LRAT ([1]; 10 μM test compound): 10%; retinol esterification inhibition (in words) [5]: potent retinol esterification inhibitors
C/C=C/C(=O)C1=C(C)C=CCC1(C)C [Damascenone]	79	–	% INHIBITION, LRAT ([1]; 10 μM test compound): 29%
CCOC(=O)C1=C(C)C=CCC1(C)C [Ethyl saffranate]	49	–	–
CCCCC/C=C\C/C=C\CCCCCCCC(=O)NCCO [Linoleamide-MEA (LOMEA), Linoleamide-MEA]	–	–	retinol esterification inhibition (in words) [5]: potent retinol esterification inhibitors; Decorin ([3]; Table 6, 0.1 μg/ml, 24 hours, vehicle control = 100): 133.9%
CCCCC/C=C\C/C=C\CCCCCCCC(=O)N(CCO)CCO [Linoleamide-DEA (LODEA), Linoleamide-DEA]	51	–	% INHIBITION, LRAT ([1]; 10 μM test compound): 11%; retinol esterification inhibition (in words) [5]: potent retinol esterification inhibitors
Isobutyl ionone	45	8	–
CC(C)=CCC/C(C)=C/CC/C(C)=C/CC/C(C)=C/CO [Geranyl Geraniol]	–	81	% INHIBITION, ARAT ([2]; 10 μM test compound): 38%; retinol esterification inhibition (in words) ([5]; listed as Geranyl geraniol): substantially more potent esterification inhibitor, than farnesol; retinol esterification inhibition (in words) ([5]; listed as geranyl geraniol): inhibit retinol esterification
C/C=C/C(=O)C1=C(C)CCCC1(C)C [Beta damascone]	92	–	% INHIBITION, LRAT ([1]; 10 μM test compound): 52%
CC1=C(/C=C/C(C)=C/C=C/C(C)=C/CO)C(C)(C)CCC1 [Retinol, reference compound]	–	–	Procollagen 1 [4]: 95.0%
CC(=O)/C(C)=C/C1C(C)=CCCC1(C)C (stereo not shown) [Gamma methyl ionone]	38	–	–

Second part, led by results:

% INHIBITION, LRAT ([1]; 100 μM test compound) [%]	% INHIBITION, ARAT ([2]; 100 μM test compound) [%]	Compound	other results
33	–	CCCC(O)CCC1C(C)CCCC1(C)C (stereo not shown) [Timberol]	–
–	0	Cc1ccc(C(C)C)c(O)c1 [thymol, reference compound]	–
–	12	CC12CCC(C1)C(C)(C)C2O (stereo not shown) [fenchyl alcohol, reference compound]	–
–	0	CC12CCC(CC1)C(C)(C)O2 [eucalyptol, reference compound]	–
12	23	Sandalone	–
–	0	Nc1ncnc2nc[nH]c12 [adenine, reference compound]	–
16	18	CC1=CC(C)C(CO)C(C)C1 (stereo not shown) [isocyclogeraniol, reference compound]	–
–	0	C=C(C)C1CC=C(C)C(=O)C1 (stereo not shown) [carvone, reference compound]	–
–	0	O=C(NCO)N(CO)C1(CO)C(=O)NC(=O)N1CO (stereo not shown) [diazolidinyl urea, reference compound]	–
–	76	CC(C)(O)CCCC1=CCC(C=O)CC1 (stereo not shown) [Lyral]	–
–	0	O=c1cc[nH]c(=O)[nH]1 [uracil, reference compound]	–
43	15	Sandanol	–
–	0	COc1cc(C=O)ccc1O [vanillin, reference compound]	–
–	0	Cc1ncc(C[n+]2csc(CCO)c2C)c(N)n1 [thiamine, reference compound]	–
–	0	CC12CCC(CC1=O)C2(C)C (stereo not shown) [camphor, reference compound]	–
